Data taken from patent US6127387A, “Use of CD4-binding small molecules to inhibit immune responses” (Thomas Jefferson University, priority 1997, dated 2000).
“Also recorded” adds a separate entry of the source.

What was measured:
CD4-MHC class II binding = molecular target: T1, CD4-MHC class II binding (Homo sapiens, UniProt P01730); test: CD4-MHC class II cell adhesion (rosette formation) assay, CD4-transfected COS-7 cells with Raji B cells; type: cell-based; conditions: 100 μM compound, FIG. 2
T1 construct: expressed in transfected cells; host or cells: COS-7 cells (CD4, plasmid T4-pcDNA3); Raji B cells (endogenous MHC class II)
Excerpt: The capacity of a compound to inhibit the interaction of CD4 and class II MHC gene products can be determined by a cell rosetting assay. A cell line, such as Cos-7, Cos-1 or the like, can be transiently transfected with a plasmid bearing a human CD4 cDNA operably linked to a promoter. In an alternative embodiment a COS-1 cell line can be stably transformed with a human CD4 expression plasmid. The human CD4expressing cells and a human class II MHC expressing cell are mixed so that cellular rosettes are formed.
No inhibition of resetting was observed when CD8-pcDNA3 transfected cells were rosetted with Raji cells, which also express MHC, class I products.
The sequence of human CD4 CDNA is given in Maddon, P. J. et al., 1985, CELL 42:93-104, which sequence is hereby incorporated by reference in its entirety. Maddon et al. refers to human CD4 as "T4." The plasmid T4-pMV7, containing the human CD4 cDNA is available from the AIDS Research and Reference Reagent Program, Division of AIDS, NIAID, NIH (McKesson BioServices, Rockville, Md.). The 3.0 Kb Eco R1 fragment of T4-pMV7 contains the 1.5 Kb CD4 CDNA.
For transfection of COS-7 cells, a CD4-expression plasmid T4-pcDNA3, was constructed by subcloning the 3.0 Kb Eco R1 fragment of T4-pMV7 into the EcoRI site of the mammalian expression vector pcDNA3 (INVITROGEN). Transfection was accomplished by DOSPER liposomal transfection reagent (BOEHRINGER MANNHEIM), by the following modification of the manufacturer's protocol.
9. Determine the CD4 expression levels as a measure of transfection efficiency by flow cytometry analysis. Usually between 30% and 40% of transfected COS-7 cells expressed human CD4 as defined by immunofluorescence binding assay for the interaction between CD4 and class II MHC proteins in the presence of organic chemicals by rosette formation: Raji B cells 10^7 in 1 ml of RPMI medium with 10% FCS and […] were added to each well 48 h post-transfection and incubated with transfected COS-7 cells in the presence of the test compound (individually 200 μM) at 37° C. for 1 h. Following incubation, wells were washed five or six times by dropping RPMI medium with FCS into wells. Rosette formation between Raji cells and transfected COS-7 cells was scored microscopically at 100-fold magnification. The number of rosette containing more than five Raji cells was counted in 10 random optical fields in each individual well; 300-400 rosettes per well were counted as the positive control for rosette formation without any inhibition in the absence of any chemicals. The inhibition activity for rosette formation for each chemical was determined by the ratio of the number of rosettes obtained in the presence of this chemical to the number of rosettes in the positive control. […]

SJL mice = test: EAE inhibition in vivo (PLP-induced acute EAE); set-up: species or system mouse; conditions: single i.v. injection of 50 μg in 0.25% DMSO on day 12 post-challenge, FIG. 3
Protocol: The lead organic compounds were tested for in vivo immunosuppressive activity in murine EAE, an animal model for multiple sclerosis. An acute form of EAE was induced in SJL mice by subcutaneous challenge with proteolipid (PLP) epitope, MacRae, B. L., et al., 1995, J. Neuroimmunol. 60:17-28, (100 μg in 0.15 ml PBS emulsified in an equal volume of Complete Freund's Adjuvant) on days 0 and 7. Pertussis (Michigan Biological Products, Lansing Mich.) was administered 30 min after antigen injection on day 7 (0.25 ml containing 5×10^9 inactivated organisms, i.v.). Clinical symptoms of EAE were evaluated based on a 0-5 scale of ascending severity of symptoms, as previously described. Korngold, R., et al., 1986, Immunogenetics 24:309-315. The organic compounds were administered by a single i.v. injection of 50 μg of the compound in 0.25% DMSO (the compounds were not soluble in water alone) on day 12 post-challenge.

[1] = tested on: B6 recipient mice with bm1 tail skin allografts; test: Class I MHC disparate skin allograft survival (CD8+ T cell-mediated B6 anti-bm1 response); type: in vivo, mouse; conditions: TJU103 single i.v. 100 μg in 0.5% DMSO 3 hours before transplantation, vs 0.5% DMSO diluent, FIG. 7
Protocol: The lead organic compound TJU103 (N-(3-indoylmethylene)-isonicotinic hydrazone) was tested for inhibition of CD8^+ T-cell mediated allograft survival using the CD8^+ T cell-mediated B6 anti-bm1 response. A single i.v. injection of 100 μg of TJU103 in 0.5% DMSO was administered into B6 recipient mice 3 hours before transplantation of MHC class I-disparate bm1 tail skin allografts following a modified method of Bailey and Usama (1960, Transplant Bull. 7:424 425). A group of mice were treated with anti-CD8 monoclonal antibody (2.43) as a […]. Median survival times were calculated and statistical comparisons were performed by Wilcoxin signed-rank non-parametric analysis using SYSTAT 5.2 software.

[2] = tested on: (B6×CBA)F1 irradiated recipient mice; test: CD4+ T cell-mediated graft-versus-host disease lethality; type: in vivo, mouse; conditions: 100 μg i.v. in 0.5% DMSO on days 0, 3 and 6 post-transplant, vs untreated control, p<0.001, FIG. 5
Protocol: The lead organic compound TJU103 (N-(3-indoylmethylene)-isonicotinic hydrazone) was tested for in vivo inhibition of CD4^+ T cell-mediatedgraft-versus-host disease lethality. (B6×CBA)F1 irradiated recipient mice were transplanted by i.v. injection with haploidentical (B6×DBA/2)F1 T cell-depleted bone marrow (ATBM) and CD4^+ T cells (3×10^6), which induces lethal graft-versus-host disease (GVHD). TJU103 was administered by i.v. injections at a dose of 100 μg in 0.5% DMSO on days 0, 3, and 6 post-transplant. […] Median survival times were calculated and statistical comparisons were performed by Wilcoxin signed-rank non-parametric analysis using SYSTAT 5.2 software.

[3] = tested on: C57B1/6 mice challenged with C57B1/6.H-2^bm12 tail skin; test: Class II MHC disparate skin allograft rejection (CD4+ T cell-mediated B6 anti-bm12 response); type: in vivo, mouse; conditions: TJU103 single i.v. 100 μg in 0.5% DMSO 3 hours before transplantation, vs 0.5% DMSO diluent, FIG. 6
Protocol: The lead organic compounds were tested for inhibition of CD4^+ T cell-mediated skin allograft rejection using the MHC class II disparate model of C57B1/6 mice challenged with C57B1/6.H-2^bm12 tail skin. Following a modified method of Bailey and Usama (1960, Transplant. Bull. 7:424-425), donor tail skin grafts (0.25 cm×0.5 cm) were transplanted onto the ventral side of the tail of the recipient mouse, covered with a glass tube and held into position with short strips of adhesive tape for 2 days. The tubes were removed and the grafts monitored every other day for up to 80 days. […] Syngeneic grafts were also transplanted as negative controls for rejection. Median survival times (MST) were calculated and statistical comparisons were performed by Wilcoxin signed-rank non-parametric analysis utilizing SYSTAT 5.2 software.
The compounds were injected 3 hours before transplantation at a dosage of 50 μg in 0.2 ml 0.25% DMSO. […] Each group contained 4 animals except the TJU102 group, which contained 5 animals.
The lead organic compound TJU103 (N-(3-indoylmethylene)-isonicotinic hydrazone) was tested for inhibition of CD4^+ T cell-mediated skin allograft rejection using the CD4^+ T cell-mediated B6 anti-bm12 response. […] Median survival times were calculated and statistical comparisons were performed by Wilcoxin signed-rank non-parametric analysis using SYSTAT 5.2 software.

Row | inhibition at 100 µM (CD4-MHC class II binding) | SMILES | severity of EAE (SJL mice) | survival time of bm1 allografts [1] | median survival time of GVHD recipients [2] | survival time of bm12 allografts [3]
1 | > 40% | COc1ccc(-c2cn3c(n2)sc2ccccc23)cc1 [TJU102] |  |  |  | 
2 | > 40% | O=C(Nc1ccc(Cl)cc1Cl)c1nc(Cn2cncn2)n[nH]1 [TJU104, N-(2,4-dichlorophenyl)-3-(1,2,4-triazol-1-ylmethyl)-1,2,4-triazole-5-carboxamide] | statistically significant effect |  |  | 
3 | > 40% | Cn1c(CSCc2nc(-c3ccc(Cl)cc3)cs2)nnc1SCc1ccc(Cl)cc1 [TJU101, 5-(4-chlorobenzylthio)-3-{[(4-chlorophenyl)-2-thiazolyl]methylthiomethyl}-4-methyl-1,2,4-triazole] |  |  |  | 

Row | SMILES | inhibition at 100 µM (CD4-MHC class II binding) | severity of EAE (SJL mice) | survival time of bm1 allografts [1] | median survival time of GVHD recipients [2] | survival time of bm12 allografts [3]
4 | O=C(NN=Cc1c[nH]c2ccccc12)c1ccncc1 [TJU103, N-(3-indoylmethylene)-isonicotinic hydrazone] | > 40% | statistically significant effect | does not prolong survival time of the allografts | significantly prolongs the median survival time; also recorded: effective in prolonging median survival time | prolongs survival time of the allografts; also recorded: effective in prolonging the median survival time of the allografts
